Measured values as given in the NIST ThermoML archive (doi:10.1016/j.jct.2017.05.020).
± gives the expanded uncertainty stated by the source.

Columns and labels:
[1] = wn = mass fraction of the nth substance listed; settings: 100 kPa, Liquid, Vibrating tube method
[2] = refractive index (Na D-line) (dimensionless); wn = mass fraction of the nth substance listed; settings: 100 kPa, Liquid, Standard Abbe refractometry
[3] = 100 kPa, Liquid, Vibrating tube method
[4] = refractive index (Na D-line) (dimensionless); settings: 100 kPa, Liquid, Standard Abbe refractometry

## OCCOCCO [diethylene glycol] + C=CC[P+](c1ccccc1)(c1ccccc1)c1ccccc1.[Br-]
[1]; 293.15 K, w2 = 0
  mass density: 1116.5 ± 7.4 kg/m3
[1]; 298.15 K, w2 = 0
  mass density: 1113 ± 7.4 kg/m3
[1]; 303.15 K, w2 = 0
  mass density: 1109.4 ± 7.3 kg/m3
[1]; 308.15 K, w2 = 0
  mass density: 1105.8 ± 7.3 kg/m3
[1]; 313.15 K, w2 = 0
  mass density: 1102.2 ± 7.3 kg/m3
[1]; 318.15 K, w2 = 0
  mass density: 1098.6 ± 7.3 kg/m3
[1]; 323.15 K, w2 = 0
  mass density: 1095 ± 7.2 kg/m3
[1]; 328.15 K, w2 = 0
  mass density: 1091.4 ± 7.2 kg/m3
[1]; 333.15 K, w2 = 0
  mass density: 1087.7 ± 7.2 kg/m3
[1]; 338.15 K, w2 = 0
  mass density: 1084 ± 7.2 kg/m3
[1]; 343.15 K, w2 = 0
  mass density: 1080.3 ± 7.1 kg/m3
[2]; 293.15 K, w2 = 0
  refractive index: 1.4477 ± 0.0032
[2]; 298.15 K, w2 = 0
  refractive index: 1.4461 ± 0.0032
[2]; 303.15 K, w2 = 0
  refractive index: 1.4446 ± 0.0032
[2]; 308.15 K, w2 = 0
  refractive index: 1.443 ± 0.0032
[2]; 313.15 K, w2 = 0
  refractive index: 1.4415 ± 0.0032
[2]; 318.15 K, w2 = 0
  refractive index: 1.44 ± 0.0032
[2]; 323.15 K, w2 = 0
  refractive index: 1.4384 ± 0.0032
[2]; 328.15 K, w2 = 0
  refractive index: 1.4368 ± 0.0032
[2]; 333.15 K, w2 = 0
  refractive index: 1.4351 ± 0.0032
[2]; 338.15 K, w2 = 0
  refractive index: 1.4334 ± 0.0032
[2]; 343.15 K, w2 = 0
  refractive index: 1.4317 ± 0.0032

## OCCOCCOCCO [triethylene glycol]
[3]; 293.15 K
  mass density: 1124.6 ± 7.9 kg/m3
[3]; 298.15 K
  mass density: 1120.8 ± 7.9 kg/m3
[3]; 303.15 K
  mass density: 1116.9 ± 7.8 kg/m3
[3]; 308.15 K
  mass density: 1113 ± 7.8 kg/m3
[3]; 313.15 K
  mass density: 1109.1 ± 7.8 kg/m3
[3]; 318.15 K
  mass density: 1105.2 ± 7.7 kg/m3
[3]; 323.15 K
  mass density: 1101.3 ± 7.7 kg/m3
[3]; 328.15 K
  mass density: 1097.4 ± 7.7 kg/m3
[3]; 333.15 K
  mass density: 1093.5 ± 7.7 kg/m3
[3]; 338.15 K
  mass density: 1089.6 ± 7.6 kg/m3
[3]; 343.15 K
  mass density: 1085.6 ± 7.6 kg/m3
[4]; 293.15 K
  refractive index: 1.4576 ± 0.0035
[4]; 298.15 K
  refractive index: 1.4558 ± 0.0035
[4]; 303.15 K
  refractive index: 1.4541 ± 0.0035
[4]; 308.15 K
  refractive index: 1.4523 ± 0.0035
[4]; 313.15 K
  refractive index: 1.4505 ± 0.0035
[4]; 318.15 K
  refractive index: 1.4488 ± 0.0035
[4]; 323.15 K
  refractive index: 1.4469 ± 0.0035
[4]; 328.15 K
  refractive index: 1.445 ± 0.0035
[4]; 333.15 K
  refractive index: 1.4434 ± 0.0035
[4]; 338.15 K
  refractive index: 1.4417 ± 0.0035
[4]; 343.15 K
  refractive index: 1.4399 ± 0.0035

## OCCOCCO [diethylene glycol]
[3]; 293.15 K
  mass density: 1116.5 ± 7.4 kg/m3
[3]; 298.15 K
  mass density: 1113 ± 7.4 kg/m3
[3]; 303.15 K
  mass density: 1109.4 ± 7.3 kg/m3
[3]; 308.15 K
  mass density: 1105.8 ± 7.3 kg/m3
[3]; 313.15 K
  mass density: 1102.2 ± 7.3 kg/m3
[3]; 318.15 K
  mass density: 1098.6 ± 7.3 kg/m3
[3]; 323.15 K
  mass density: 1095 ± 7.2 kg/m3
[3]; 328.15 K
  mass density: 1091.4 ± 7.2 kg/m3
[3]; 333.15 K
  mass density: 1087.7 ± 7.2 kg/m3
[3]; 338.15 K
  mass density: 1084 ± 7.2 kg/m3
[3]; 343.15 K
  mass density: 1080.3 ± 7.1 kg/m3
[4]; 293.15 K
  refractive index: 1.4477 ± 0.0032
[4]; 298.15 K
  refractive index: 1.4461 ± 0.0032
[4]; 303.15 K
  refractive index: 1.4446 ± 0.0032
[4]; 308.15 K
  refractive index: 1.443 ± 0.0032
[4]; 313.15 K
  refractive index: 1.4415 ± 0.0032
[4]; 318.15 K
  refractive index: 1.44 ± 0.0032
[4]; 323.15 K
  refractive index: 1.4384 ± 0.0032
[4]; 328.15 K
  refractive index: 1.4368 ± 0.0032
[4]; 333.15 K
  refractive index: 1.4351 ± 0.0032
[4]; 338.15 K
  refractive index: 1.4334 ± 0.0032
[4]; 343.15 K
  refractive index: 1.4317 ± 0.0032

## C=CC[P+](c1ccccc1)(c1ccccc1)c1ccccc1.[Br-] [allyltriphenylphosphonium bromide] + OCCOCCO
[1]; 293.15 K, w1 = 0.1842
  mass density: 1146.3 ± 7.5 kg/m3
[1]; 293.15 K, w1 = 0.2653
  mass density: 1159.9 ± 7.6 kg/m3
[1]; 293.15 K, w1 = 0.4745
  mass density: 1201.1 ± 7.6 kg/m3
[1]; 298.15 K, w1 = 0.1842
  mass density: 1142.7 ± 7.4 kg/m3
[1]; 298.15 K, w1 = 0.2653
  mass density: 1156.3 ± 7.6 kg/m3
[1]; 298.15 K, w1 = 0.4745
  mass density: 1197.5 ± 7.6 kg/m3
[1]; 303.15 K, w1 = 0.1842
  mass density: 1139.1 ± 7.4 kg/m3
[1]; 303.15 K, w1 = 0.2653
  mass density: 1152.6 ± 7.5 kg/m3
[1]; 303.15 K, w1 = 0.4745
  mass density: 1193.8 ± 7.6 kg/m3
[1]; 308.15 K, w1 = 0.1842
  mass density: 1135.5 ± 7.4 kg/m3
[1]; 308.15 K, w1 = 0.2653
  mass density: 1149 ± 7.5 kg/m3
[1]; 308.15 K, w1 = 0.4745
  mass density: 1190.1 ± 7.6 kg/m3
[1]; 313.15 K, w1 = 0.1842
  mass density: 1131.9 ± 7.4 kg/m3
[1]; 313.15 K, w1 = 0.2653
  mass density: 1145.3 ± 7.5 kg/m3
[1]; 313.15 K, w1 = 0.4745
  mass density: 1186.4 ± 7.5 kg/m3
[1]; 318.15 K, w1 = 0.1842
  mass density: 1128.2 ± 7.3 kg/m3
[1]; 318.15 K, w1 = 0.2653
  mass density: 1141.7 ± 7.5 kg/m3
[1]; 318.15 K, w1 = 0.4745
  mass density: 1182.7 ± 7.5 kg/m3
[1]; 323.15 K, w1 = 0.1842
  mass density: 1124.6 ± 7.3 kg/m3
[1]; 323.15 K, w1 = 0.2653
  mass density: 1138 ± 7.4 kg/m3
[1]; 323.15 K, w1 = 0.4745
  mass density: 1179 ± 7.5 kg/m3
[1]; 328.15 K, w1 = 0.1842
  mass density: 1121 ± 7.3 kg/m3
[1]; 328.15 K, w1 = 0.2653
  mass density: 1134.4 ± 7.4 kg/m3
[1]; 328.15 K, w1 = 0.4745
  mass density: 1175.4 ± 7.5 kg/m3
[1]; 333.15 K, w1 = 0.1842
  mass density: 1117.3 ± 7.3 kg/m3
[1]; 333.15 K, w1 = 0.2653
  mass density: 1130.7 ± 7.4 kg/m3
[1]; 333.15 K, w1 = 0.4745
  mass density: 1171.7 ± 7.4 kg/m3
[1]; 338.15 K, w1 = 0.1842
  mass density: 1113.6 ± 7.2 kg/m3
[1]; 338.15 K, w1 = 0.2653
  mass density: 1127 ± 7.4 kg/m3
[1]; 338.15 K, w1 = 0.4745
  mass density: 1167.9 ± 7.4 kg/m3
[1]; 343.15 K, w1 = 0.1842
  mass density: 1109.9 ± 7.2 kg/m3
[1]; 343.15 K, w1 = 0.2653
  mass density: 1123.3 ± 7.4 kg/m3
[1]; 343.15 K, w1 = 0.4745
  mass density: 1164.2 ± 7.4 kg/m3
[2]; 293.15 K, w1 = 0.1842
  refractive index: 1.4817 ± 0.0036
[2]; 293.15 K, w1 = 0.2653
  refractive index: 1.4955 ± 0.0037
[2]; 293.15 K, w1 = 0.4745
  refractive index: 1.5446 ± 0.0039
[2]; 298.15 K, w1 = 0.1842
  refractive index: 1.4801 ± 0.0036
[2]; 298.15 K, w1 = 0.2653
  refractive index: 1.4938 ± 0.0038
[2]; 298.15 K, w1 = 0.4745
  refractive index: 1.543 ± 0.0039
[2]; 303.15 K, w1 = 0.1842
  refractive index: 1.4784 ± 0.0036
[2]; 303.15 K, w1 = 0.2653
  refractive index: 1.4921 ± 0.0038
[2]; 303.15 K, w1 = 0.4745
  refractive index: 1.5413 ± 0.0039
[2]; 308.15 K, w1 = 0.1842
  refractive index: 1.4768 ± 0.0036
[2]; 308.15 K, w1 = 0.2653
  refractive index: 1.4904 ± 0.0037
[2]; 308.15 K, w1 = 0.4745
  refractive index: 1.5396 ± 0.0039
[2]; 313.15 K, w1 = 0.1842
  refractive index: 1.4752 ± 0.0036
[2]; 313.15 K, w1 = 0.2653
  refractive index: 1.4887 ± 0.0037
[2]; 313.15 K, w1 = 0.4745
  refractive index: 1.538 ± 0.0039
[2]; 318.15 K, w1 = 0.1842
  refractive index: 1.4735 ± 0.0036
[2]; 318.15 K, w1 = 0.2653
  refractive index: 1.487 ± 0.0037
[2]; 318.15 K, w1 = 0.4745
  refractive index: 1.5363 ± 0.0039
[2]; 323.15 K, w1 = 0.1842
  refractive index: 1.4718 ± 0.0036
[2]; 323.15 K, w1 = 0.2653
  refractive index: 1.4853 ± 0.0037
[2]; 323.15 K, w1 = 0.4745
  refractive index: 1.5346 ± 0.0039
[2]; 328.15 K, w1 = 0.1842
  refractive index: 1.4701 ± 0.0036
[2]; 328.15 K, w1 = 0.2653
  refractive index: 1.4836 ± 0.0037
[2]; 328.15 K, w1 = 0.4745
  refractive index: 1.5329 ± 0.0039
[2]; 333.15 K, w1 = 0.1842
  refractive index: 1.4684 ± 0.0035
[2]; 333.15 K, w1 = 0.2653
  refractive index: 1.4819 ± 0.0037
[2]; 333.15 K, w1 = 0.4745
  refractive index: 1.5313 ± 0.0039
[2]; 338.15 K, w1 = 0.1842
  refractive index: 1.4668 ± 0.0035
[2]; 338.15 K, w1 = 0.2653
  refractive index: 1.4802 ± 0.0037
[2]; 338.15 K, w1 = 0.4745
  refractive index: 1.5296 ± 0.0039
[2]; 343.15 K, w1 = 0.1842
  refractive index: 1.4651 ± 0.0035
[2]; 343.15 K, w1 = 0.2653
  refractive index: 1.4785 ± 0.0037
[2]; 343.15 K, w1 = 0.4745
  refractive index: 1.5279 ± 0.0039
